We go through 1 compound from US20240368565A1, “COMPLEMENTATION-BASED TAGS AND REPORTERS FOR DUAL-MODALITY LABELING” (Promega Corporation, priority 2023, published 2024).

The test system of the assay is HeLa cells. Description: Flow cytometry fold response, reporter variants co-expressed with EGFP-HaloTag[3-19]-5×Gly/Ser-VS-HiBiT. Format: cell-based. The conditions noted are these: 100 nM ligand, compared to the less fluorogenic ligand JF646. How it is done:
FIG. 95. […] Approximately 48 hours post-transfection, the cells were labeled with 100 nM JF646 HaloTag® ligand. Following a 1-hour incubation with the ligand, the cells were washed with DPBS media for 30 minutes (2× for 15 minutes each). Subsequently, the cells were lifted, and their fluorescence activity was measured using flow cytometry. […] The fold response of each assay condition was calculated as the ratio of mean fluorescence signal in the second quadrant (double positive) by the mean fluorescence signal in the third (JF646+) quadrant.
FIG. 96. […] Approximately 48 hours post-transfection, the cells were labeled with 100 nM JF635 HaloTag® ligand. Following a 1-hour incubation with the ligand, the cells were washed with DPBS media for 30 minutes (2× for 15 minutes each). Subsequently, the cells were lifted, and their fluorescence activity was measured using flow cytometry. […] The fold response of each assay condition was calculated as the ratio of mean fluorescence signal in the second quadrant (double positive) by the mean fluorescence signal in the third (JF646+) quadrant.

Structures are written as SMILES.

For the compound `C[Si]1(C)c2cc(N3CC(F)C3)ccc2C2(OC(=O)c3ccc(C(=O)NCCOCCOCCCCCCCl)cc32)c2ccc(N3CC(F)C3)cc21` [JF635], the Fluorescence fold response entry is listed as “fold responses are enhanced”.
